The source of these data is US11116213B2, “Herbicidal composition comprising cinmethylin and pethoxamid” (BASF Agro B.V., priority 2015, dated 2021).

Holding throughout (type): in vivo
One experiment relates to Avena fatua. The experiment can be described thus: Greenhouse pre-emergence herbicidal activity on AVEFA. The conditions noted are these: 20 DAT; for herbicidal activity (%): herbicide A solo. As to the method:
(§1) The test plants have been seeded, separately for each species, in plastic containers in sandy loamy soil containing 5% of organic matter.
(§2) The containers were irrigated gently to promote germination and growth and subsequently covered with transparent plastic hoods until the plants had rooted.
(§3) The plants have been cultivated due to their individual requirements at 10-25° C. and 20-35° C.
(§4) The plants were irrigated due to their necessity.
(§5) The racemic mixture (±)-2-exo-(2-Methylbenzyloxy)-1-methyl-4-isopropyl-7-oxabicyclo[2.2.1]heptane was used as herbicide A and formulated as an emulsifiable concentrate with an active ingredient concentration of 750 g/l.
(§6) Pethoxamid (herbicide B) was used as an emulsifiable concentrate formulation having an active ingredient concentration of 600 g/l.
(§7) In the following experiments, the herbicidal activity for the individual herbicidal compositions (solo and mixture applications) was assessed 20 days after treatment (DAT).
(§8) The evaluation for the damage on undesired weeds caused by the chemical compositions was carried out using a scale from 0 to 100%, compared to the untreated control plants. Here, 0 means no damage and 100 means complete destruction of the plants.
(§9) E=X+Y−(X·Y/100) where • X=effect in percent using herbicide A at an application rate a; • Y=effect in percent using herbicide B at application rate b; • E=expected effect (in %) of herbicide A+herbicide B at application rates a+b.
(§10) The value E corresponds to the effect (plant damage or injury) which is to be expected if the activity of the individual compounds is additive.
(§11) Table 1 below relates to the herbicidal activity, in greenhouse trials, of the individual actives and the combinations applied at different rates and ratios, in pre-emergence application at 20 days after treatment (DAT).

The subject of the next experiment is Brassica napus. Nature of the experiment: Greenhouse pre-emergence herbicidal activity on BRSNW. The conditions noted are these: 20 DAT. As to the method: as §1, §2, §3, §4, §5, §6, §7
(§12) The evaluation for the damage on undesired weeds caused by the chemical compositions was carried out using a scale from 0 to 100%, compared to the untreated control plants. Here, 0 means no damage and 100 means complete destruction of the plants. […]

A further experiment has as its system Setaria viridis. Nature of the experiment: Greenhouse pre-emergence herbicidal activity on SETVI. The conditions noted are these: 20 DAT. As to the method:
as §1, §2, §3, §4, §5, §6, §7, §12

The test system of the next experiment is Chenopodium album. Nature of the experiment: Greenhouse pre-emergence herbicidal activity on CHEAL. As to conditions: 20 DAT. As to the method:
as §1, §2, §3, §4, §5, §6, §7, §12

The subject of the next experiment is Abutilon theophrasti. Nature of the experiment: Greenhouse pre-emergence herbicidal activity on ABUTH. The conditions noted are these: 20 DAT. As to the method: as §1, §2, §3, §4, §5, §6, §7, §12
Another experiment concerns Lolium multiflorum. Nature of the experiment: Greenhouse pre-emergence herbicidal activity on LOLMU. As to conditions: 20 DAT. How it is done:
as §1, §2, §3, §4, §5, §6, §7, §12

A further experiment deals with Sorghum halepense. Nature of the experiment: Greenhouse pre-emergence herbicidal activity on SORHA. As to conditions: 20 DAT. As to the method: as §1, §2, §3, §4, §5, §6, §7, §12
In the next experiment the test system is Polygonum convolvulus. Nature of the experiment: Greenhouse pre-emergence herbicidal activity on POLCO. The conditions noted are these: 20 DAT; for herbicidal activity (%): herbicide A solo. How it is done:
as §1, §2, §3, §4, §5, §6, §7, §8, §9, §10, §11

Another experiment deals with Anthemis arvensis. Nature of the experiment: Greenhouse pre-emergence herbicidal activity on ANTAR. The conditions noted are these: 20 DAT; for herbicidal activity (%): herbicide A solo. How it is done: as §1, §2, §3, §4, §5, §6, §7, §8, §9, §10, §11
In a further experiment the test system is Alopecurus myosuroides. Nature of the experiment: Greenhouse pre-emergence herbicidal activity on ALOMY. As to conditions: 20 DAT. As to the method:
as §1, §2, §3, §4, §5, §6, §7, §12

[1] abbreviates: herbicide A solo, 31.25 g ai/ha.

Take “(±)-2-exo-(2-Methylbenzyloxy)-1-methyl-4-isopropyl-7-oxabicyclo[2.2.1]heptane [herbicide A]”: the “herbicidal activity (%)” value with Avena fatua (62.5 g ai/ha) came out at 0%; with Avena fatua (125 g ai/ha), 25%; in the experiment with Avena fatua (250 g ai/ha), 35%; in the experiment on Brassica napus (herbicide A solo, 250 g ai/ha) it was 0%; in the experiment with Setaria viridis (setting [1]), 90%; in the experiment with Chenopodium album (setting [1]), 40%. The “herbicidal activity (%)” value in the experiment on Abutilon theophrasti (setting [1]) was found to be 30%; in the experiment on Lolium multiflorum (setting [1]) it was 60%; in the experiment with Sorghum halepense (herbicide A solo, 62.5 g ai/ha) it was 80%; with Polygonum convolvulus (62.5 g ai/ha), 0%; with Polygonum convolvulus (125 g ai/ha) it was 0%; with Polygonum convolvulus (250 g ai/ha), 15%. Further, the “herbicidal activity (%)” value stood at 0% with Anthemis arvensis (31.25 g ai/ha); 0% with Anthemis arvensis (62.5 g ai/ha); 98% in the experiment on Alopecurus myosuroides (herbicide A solo, 62.5 g ai/ha).

Regarding `CCOCCN(C(=O)CCl)C(=C(C)C)c1ccccc1` [pethoxamid, 2-chloro-N-(2-ethoxyethyl)-N-(2-methyl-1-phenylprop-1-enyl)acetamide], the inhibition (in general, the drop in the measured response relative to a control, in per cent) at 125 g/ha was 40% in the experiment with Avena fatua (Avena fatua, 480 h, pethoxamid solo, 125 g ai/ha); 85% in the experiment on Sorghum halepense (Sorghum halepense, 480 h, pethoxamid solo, 125 g ai/ha); 15% with Polygonum convolvulus (Fallopia convolvulus, 480 h, pethoxamid solo, 125 g ai/ha); 60% in the experiment on Anthemis arvensis (Anthemis arvensis, 480 h, pethoxamid solo, 125 g ai/ha); 35% in the experiment with Alopecurus myosuroides (Alopecurus myosuroides, 480 h, pethoxamid solo, 125 g ai/ha). Also, the inhibition at 250 g/ha came out at 40% in the experiment on Avena fatua (Avena fatua, 480 h, pethoxamid solo, 250 g ai/ha) and 15% in the experiment on Polygonum convolvulus (Fallopia convolvulus, 480 h, pethoxamid solo, 250 g ai/ha). Moreover, the inhibition at 500 g/ha in the experiment on Avena fatua (Avena fatua, 480 h, pethoxamid solo, 500 g ai/ha) was determined as 50%; with Brassica napus (Brassica napus, 480 h, pethoxamid solo, 500 g ai/ha), 0%; with Polygonum convolvulus (Fallopia convolvulus, 480 h, pethoxamid solo, 500 g ai/ha) it was 30%. The inhibition at 62.5 g/ha in the experiment with Setaria viridis (Setaria viridis, 480 h, pethoxamid solo, 62.5 g ai/ha) was determined as 80%; with Chenopodium album (Chenopodium album, 480 h, pethoxamid solo, 62.5 g ai/ha), 40%; with Abutilon theophrasti (Abutilon theophrasti, 480 h, pethoxamid solo, 62.5 g ai/ha), 20%; in the experiment with Lolium multiflorum (Lolium multiflorum, 480 h, pethoxamid solo, 62.5 g ai/ha) it was 50%; in the experiment with Anthemis arvensis (Anthemis arvensis, 480 h, pethoxamid solo, 62.5 g ai/ha) it was 20%.
